Assay results published in US11464726B2, “1,4: 3,6 dianhydrohexitols for moisturising the skin” (ROQUETTE FRERES, priority 2017, dated 2022).

System: surface layers of the skin (superficial stratum corneum)
Assay: Moisturizing efficiency of gel evaluated by corneometry
Type: in vivo, human
Conditions: for mean hydration value (Corneometer capacitance): gel 6% by weight + 1% carbomer, around 2 mg/cm^2, inner forearm, ten volunteers; for Mean variations in % of hydration: (T…h-T0)/T0*100, gel 6% by weight
Description: For this, these polyols were incorporated into a cosmetic preparation for topical use in gel form. […] The placebo consists only of 1% by weight of gelling carbomer in water. The moisturizing efficiency of each of the preparations for topical use was evaluated by corneometry. Corneometry is a scientifically recognized method for measuring the hydration of the surface layers of the skin. It is based on the determination of the capacitance of the superficial stratum corneum. The study was carried out with ten healthy volunteers aged from 18 to 65 years old. The moisturizing efficiency of each of the five formulae was evaluated 1 hour, 2 hours and 4 hours after its application in the laboratory on the inner face of the forearm. […] For each formula, an amount of around 2 mg/cm^2 was applied to an area of 3×3 cm, in non-occlusive epicutaneous mode. In addition to the zones treated with the five formulae, two additional zones were evaluated: one treated with a placebo and the other without treatment for the duration of the study. The measurements were carried out with a Corneometer® CM285 included in a Multiprobe Adapter System MPA® (Courage-Khazaka GmbH, Germany). The instrument determines the capacitance of the epidermis, which is proportional to the water content thereof, at a depth of around 15 μm. This method is based on the difference between the electrical permittivity of the water which is 81 and that of other substances (<7). The probe of the Corneometer (surface area of 49 mm^2) is positioned perpendicular to the test area which was delimited beforehand with a pencil. The measurement of the capacitance lasts 1 second. Each measurement is carried out twice and the average of the two measurements is noted. The instrument gives the values in arbitrary units ranging from 0 to 130, with an error margin of ±3%. Each volunteer rested for around 1 minute in an air-conditioned room before each measurement with the Corneometer® in order to avoid abnormal results due to excessive perspiration or stress. Table 2 below reports the mean hydration values expressed in arbitrary units (AU).

SMILES | mean hydration value (Corneometer capacitance) (T0, before application) | mean hydration value (Corneometer capacitance) (T1 h after application) | Mean variations in % of hydration (T1 h vs T0) | mean hydration value (Corneometer capacitance) (T2 h after application) | Mean variations in % of hydration (T2 h vs T0) | mean hydration value (Corneometer capacitance) (T4 h after application) | Mean variations in % of hydration (T4 h vs T0) | moisturizing power given to the gel (in words, short-term hydration and maintenance over time (T4h vs T0))
OC[C@@H](O)[C@@H](O)[C@H](O)[C@@H](O)CO [Sorbitol] | 48.60 AU | 54.16 AU | 11.4% | 49.11 AU | 1.0% | 46.91 AU | −3.5% | –
OCC(O)CO [Glycerol] | 42.03 AU | 57.05 AU | 35.7% | 56.15 AU | 33.6% | 56.57 AU | 34.6% | –
OC[C@@H](O)[C@H](O)[C@@H](O)CO [Xylitol] | 45.94 AU | 55.37 AU | 20.5% | 52.68 AU | 14.7% | 45.28 AU | −1.4% | –
O[C@@H]1CO[C@H]2[C@@H]1OC[C@@H]2O [Isosorbide, 1,4:3,6-dianhydrosorbitol] | 46.54 AU | 56.60 AU | 21.6% | 52.88 AU | 13.6% | 52.50 AU | 12.8% | satisfactory moisturizing power, comparable to that of betaine
C[N+](C)(C)CC(=O)O [Betaine] | 43.39 AU | 55.61 AU | 28.2% | 54.30 AU | 25.1% | 50.74 AU | 16.9% | –
